Key:
Assay type in all cases: cell-based
p61 splice variant = target: T1, p61 splice variant (Homo sapiens, UniProt P15056+Q96SW2, DEL169-380/V600E); assay: Western blot of engineered HEK-293T cells expressing the p61 splice variant; settings: lentivirus expression
T1 construct: host or cells: HEK-293T, lentiviral expression

ERK phosphorylation = ERK phosphorylation (pERK) in A375 cells
RAF1 (a.k.a CRAF) = RAF1 (a.k.a CRAF) (Homo sapiens, UniProt P04049); assay: Global proteomics profiling, A375 cells; parameters: endogenous in cells; host or cells: A375 (A8.2); settings: 300 nM, 24 hours
Protocol: Each cell line was treated in duplicate with either DMSO or Compound 157 (final concentration 300 nM) for 24 hours in an incubator at 37° C. with 5% CO2. After the 24-hour incubation, cells were harvested, washed twice with PBS, and snap frozen in liquid nitrogen. Samples were re-suspended in lysis buffer [8 M urea, 50 mM HEPES (pH 8.5), 50 mM NaCl, 1× protease inhibitor cocktail] and lysed by sonication at 4° C. with 85% amplitude in a pulse setting with 30 seconds on and 30 seconds off for a total sonication time of 5 minutes. Lysates were centrifuged at maximum speed for 10 minutes at 4° C. and the supernatant collected, reduced for 1 hour at room temperature with 5 mM TCEP, and the cysteine residues were then alkylated with 15 mM iodoacetamide (room temperature, in dark, 30 minutes). Protein content was extracted by methanol-chloroform precipitation and subsequent ice-cold acetone washes. Protein pellets were resuspended in 8 M urea, 50 mM HEPES (pH 8.5) buffer and protein concentrations were measured by BCA assay. […]
For peptide tandem mass tag (TMT) labeling, 100 μg of peptides per sample was prepared at […] concentration in 200 mM HEPES (pH 8.5), 30% acetonitrile (ACN) and each the specific TMT reagent. […] TMT reporter ion intensities were quantified by extracting the signal-to-noise ratio for each. […]

A375 cells [1] = assay: A375 cell growth (GI50); settings: Homo sapiens, A-375, at 96 hr
A375 cells [2] = assay: CellTiter-Glo cell growth inhibition, A375 cells; settings: Homo sapiens, A-375, 72 hr, mean of at least n = 3
Protocol: A375 cell viability was determined based on quantification of ATP using CellTiter-Glo® 2.0 luminescent Assay kit, which signals the presence of metabolically-active cells. Briefly, test compound was added to 384-well plates at a top concentration of 10 μM with 14 points, half log titration in duplicates. A375 cells were seeded into the 384-well plates in DMEM medium containing 10% FBS at a cell density of 250 cells per well. Cells treated in the absence of the test compound were the negative control, normalized to 100% viability, and cells treated in the absence of CellTiter-Glo® 2.0 were the positive control, normalized to 0% viability. A375 cells were incubated at 37° C. with 5% CO2 for 72 hr. CellTiter-Glo reagent was then added to the cells and Luminescence was acquired on EnVision™ Multilabel Reader (PerkinElmer, Santa Clara, CA, USA).

T1 sequence (P15056 with tags, fused parts or gaps DEL169-380/V600E): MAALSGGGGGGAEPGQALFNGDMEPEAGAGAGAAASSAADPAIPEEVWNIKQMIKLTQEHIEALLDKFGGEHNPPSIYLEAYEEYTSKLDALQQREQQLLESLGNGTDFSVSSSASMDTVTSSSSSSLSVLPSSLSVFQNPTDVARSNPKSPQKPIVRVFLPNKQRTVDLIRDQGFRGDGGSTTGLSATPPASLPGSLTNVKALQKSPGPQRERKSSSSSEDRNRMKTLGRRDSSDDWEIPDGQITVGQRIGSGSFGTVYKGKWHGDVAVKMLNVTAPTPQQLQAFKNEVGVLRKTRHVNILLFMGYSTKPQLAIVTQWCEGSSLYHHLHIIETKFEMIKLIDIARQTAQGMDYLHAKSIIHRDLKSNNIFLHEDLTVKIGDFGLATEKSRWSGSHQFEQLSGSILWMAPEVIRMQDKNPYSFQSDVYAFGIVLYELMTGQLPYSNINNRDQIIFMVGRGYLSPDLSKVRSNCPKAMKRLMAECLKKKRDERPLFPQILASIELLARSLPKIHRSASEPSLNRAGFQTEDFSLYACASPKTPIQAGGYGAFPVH
T1 sequence (Q96SW2 whole entry, stated change not applied, canonical isoform): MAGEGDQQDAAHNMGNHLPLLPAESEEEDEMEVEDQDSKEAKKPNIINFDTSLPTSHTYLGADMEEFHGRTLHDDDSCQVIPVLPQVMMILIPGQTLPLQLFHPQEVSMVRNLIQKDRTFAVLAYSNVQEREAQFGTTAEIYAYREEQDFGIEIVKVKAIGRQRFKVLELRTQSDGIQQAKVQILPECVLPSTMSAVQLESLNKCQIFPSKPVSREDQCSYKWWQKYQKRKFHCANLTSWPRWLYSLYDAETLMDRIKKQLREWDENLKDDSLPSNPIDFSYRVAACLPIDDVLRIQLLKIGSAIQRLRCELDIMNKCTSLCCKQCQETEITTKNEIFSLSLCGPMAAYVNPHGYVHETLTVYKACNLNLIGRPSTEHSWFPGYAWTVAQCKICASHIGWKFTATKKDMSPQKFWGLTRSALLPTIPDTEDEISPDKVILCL
T1 sequence (Q16531 whole entry partner, canonical isoform): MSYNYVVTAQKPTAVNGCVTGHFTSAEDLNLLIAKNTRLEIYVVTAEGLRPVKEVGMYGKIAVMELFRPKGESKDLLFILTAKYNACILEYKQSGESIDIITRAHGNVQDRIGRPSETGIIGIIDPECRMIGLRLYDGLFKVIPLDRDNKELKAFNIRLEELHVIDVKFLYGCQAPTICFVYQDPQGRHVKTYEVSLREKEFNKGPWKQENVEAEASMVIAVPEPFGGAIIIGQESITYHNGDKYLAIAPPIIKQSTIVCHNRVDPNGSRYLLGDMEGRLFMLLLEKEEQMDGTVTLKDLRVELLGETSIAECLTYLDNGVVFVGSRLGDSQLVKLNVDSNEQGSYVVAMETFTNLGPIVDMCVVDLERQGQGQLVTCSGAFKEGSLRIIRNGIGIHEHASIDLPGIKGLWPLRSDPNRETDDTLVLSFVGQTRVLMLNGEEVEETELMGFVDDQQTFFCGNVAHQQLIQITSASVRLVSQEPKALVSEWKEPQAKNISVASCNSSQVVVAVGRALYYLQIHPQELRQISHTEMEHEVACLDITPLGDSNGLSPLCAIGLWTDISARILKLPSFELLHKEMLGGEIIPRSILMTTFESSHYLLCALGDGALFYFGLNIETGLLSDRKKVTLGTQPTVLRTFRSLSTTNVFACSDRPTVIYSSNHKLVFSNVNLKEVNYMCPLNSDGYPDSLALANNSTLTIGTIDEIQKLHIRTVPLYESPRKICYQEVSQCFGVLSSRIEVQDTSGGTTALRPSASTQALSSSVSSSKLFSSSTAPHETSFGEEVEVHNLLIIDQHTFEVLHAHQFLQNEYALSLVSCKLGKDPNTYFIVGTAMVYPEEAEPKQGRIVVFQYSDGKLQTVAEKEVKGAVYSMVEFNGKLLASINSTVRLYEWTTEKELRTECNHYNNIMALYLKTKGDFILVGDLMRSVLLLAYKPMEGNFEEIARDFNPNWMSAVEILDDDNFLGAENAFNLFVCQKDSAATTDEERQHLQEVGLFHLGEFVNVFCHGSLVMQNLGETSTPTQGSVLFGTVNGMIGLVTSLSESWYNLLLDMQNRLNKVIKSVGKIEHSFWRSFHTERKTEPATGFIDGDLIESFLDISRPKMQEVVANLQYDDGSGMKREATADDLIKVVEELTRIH
Sequence of RAF1 (a.k.a CRAF) (P04049 whole entry): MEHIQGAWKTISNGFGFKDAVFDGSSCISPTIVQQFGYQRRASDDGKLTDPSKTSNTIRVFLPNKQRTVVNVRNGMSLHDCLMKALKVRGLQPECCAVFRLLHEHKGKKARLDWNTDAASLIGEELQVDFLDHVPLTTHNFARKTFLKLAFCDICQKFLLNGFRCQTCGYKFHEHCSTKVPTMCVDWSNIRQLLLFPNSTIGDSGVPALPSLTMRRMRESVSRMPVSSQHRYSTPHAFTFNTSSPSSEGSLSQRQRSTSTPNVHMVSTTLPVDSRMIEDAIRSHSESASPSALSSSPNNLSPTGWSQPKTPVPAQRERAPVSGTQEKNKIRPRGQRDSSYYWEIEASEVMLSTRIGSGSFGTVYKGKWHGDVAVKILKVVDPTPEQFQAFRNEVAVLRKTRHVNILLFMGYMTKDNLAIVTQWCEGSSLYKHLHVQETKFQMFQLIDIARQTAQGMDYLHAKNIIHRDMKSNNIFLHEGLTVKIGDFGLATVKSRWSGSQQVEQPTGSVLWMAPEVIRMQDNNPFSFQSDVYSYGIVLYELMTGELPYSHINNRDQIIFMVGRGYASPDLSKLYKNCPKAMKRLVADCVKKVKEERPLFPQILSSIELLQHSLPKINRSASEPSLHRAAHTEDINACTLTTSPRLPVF

Compound: CCN(C)S(=O)(=O)Nc1ccc(F)c(Oc2ccc3ncn([C@H]4COC5(CCN(C(=O)CC6(O)CCN(c7cc8c(cc7F)c(N7CCC(=O)NC7=O)nn8C)CC6)CC5)C4)c(=O)c3c2)c1C#N [Compound 157, (3R)-3-[6-[2-cyano-3-[[ethyl(methyl)sulfamoyl]amino]-6-fluorophenoxy]-4-oxoquinazolin-3-yl]-8-[2-[1-[3-(2,4-dioxo-1,3-diazinan-1-yl)-5-fluoro-1-methylindazol-6-yl]-4-hydroxypiperidin-4-yl]acetyl]-1-oxa-8-azaspiro[4.5]decane]
- degradation of p61 splice variant (p61 splice variant): capable of degrading
- ERK phosphorylation by western blot (ERK phosphorylation): significantly drops off
- RAF1 (CRAF) protein level change (RAF1 (a.k.a CRAF)): remain largely unchanged
- GI50 (A375 cells [1]): 94 nM
- GI50 (A375 cells [2]): 9.3 nM
